In patent publication US9365522B2, “Pyrazole amide derivative” (AMGEN INC., priority 2015, dated 2016):

Biological target: T1, ligand binding domain of human ROR gamma (Homo sapiens, UniProt P51449)
T1 construct: NM_001001523; expressed in transfected cells; host or cells: HEK293T
T1 sequence (P51449 247-497 isoform P51449-2): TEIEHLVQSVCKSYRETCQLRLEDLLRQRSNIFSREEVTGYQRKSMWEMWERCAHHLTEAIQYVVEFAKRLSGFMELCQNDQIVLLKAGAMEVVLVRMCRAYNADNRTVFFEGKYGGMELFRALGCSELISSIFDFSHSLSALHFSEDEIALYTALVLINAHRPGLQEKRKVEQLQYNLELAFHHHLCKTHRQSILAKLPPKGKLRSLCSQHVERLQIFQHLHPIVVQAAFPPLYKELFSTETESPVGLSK
Assay: ROR gamma reporter gene assay (GAL4-RORγ LBD luciferase, Dual-Glo)
Type: cell-based
Settings: HEK293T cells transfected with pM-ROR gamma, 8 concentrations 3.5 nM to 10.5 μM, 24 h incubation; read-out: result (pIC50, inhibition of RORγ transcriptional activity) (converted)
Outline: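 Transient GAL4-RORγ LBD (aa 247-497) / 5×UAS-luc / pRL-CMV cotransfection in HEK293T, charcoal-stripped 10% FBS. 8-pt dose, 3.5 nM–10.5 μM, 0.075% DMSO final. 24 h, 37 °C, 5% CO2. Dual-Glo firefly/renilla readout; pIC50 from curve fit.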

| IC50 [pM] | Compound |
| --- | --- |
| 178000 | C[C@]1(C(=O)O)CC[C@H](n2ncc(C(=O)N(CCN3CCCC(F)C3)CC(=O)c3c(Cl)cc(F)cc3Cl)c2C(F)(F)F)CC1 (stereo partly drawn) [Example 353, trans-4-(4-((2-(2,6-dichloro-4-fluorophenyl)-2-oxoethyl)-(2-(3-fluoropiperidin-1-yl)ethyl)carbamoyl)-5-(trifluoromethyl)pyrazol-1-yl)-1-methylcyclohexane-1-carboxylic acid] |
| 11700 | CCC(C)(C)CN(CC(=O)c1c(Cl)cncc1Cl)C(=O)c1cnn(C23CCC(C(=O)O)(CC2)CC3)c1C(F)(F)F [Example 288, 4-(4-((2-(3,5-dichloropyridin-4-yl)-2-oxoethyl)-(2,2-dimethylbutyl)carbamoyl)-5-(trifluoromethyl)pyrazol-1-yl)bicyclo[2.2.2]octane-1-carboxylic acid] |
| < 3470 | CC1(C)CC(CN(CC(=O)c2c(Cl)cc(F)cc2Cl)C(=O)c2cnn([C@H]3CC[C@](C)(C(=O)O)CC3)c2C(F)(F)F)C1 [Example 249, trans-4-(4-((2-(2,6-dichloro-4-fluorophenyl)-2-oxoethyl)-((3,3-dimethylcyclobutyl)methyl)carbamoyl)-5-(trifluoromethyl)pyrazol-1-yl)-1-methylcyclohexane-1-carboxylic acid] |
| 87100 | NC(=O)[C@H]1CC[C@H](n2ncc(C(=O)N(CC(=O)c3c(Cl)cncc3Cl)Cc3ccc(F)cc3)c2C(F)(F)F)CC1 [Example 88, l-(trans-4-carbamoylcyclohexyl)-N-(2-(3,5-dichloropyridin-4-yl)-2-oxoethyl)-N-(4-fluorobenzyl)-5-(trifluoromethyl)-1H-pyrazole-4-carboxamide] |
| 234000 | CC(CN(Cc1ccc(F)cc1)C(=O)c1cnn([C@H]2CC[C@H](C(=O)O)CC2)c1C(F)(F)F)c1c(Cl)cccc1Cl (stereo partly drawn) [Example 100, trans-4-(4-(2-(2,6-dichlorophenyl)propyl-((4-fluorophenyl)methyl)carbamoyl)-5-(trifluoromethyl)pyrazol-1-yl)cyclohexane-1-carboxylic acid] |
| 2.04e+06 | O=C(CN(Cc1cccnc1)C(=O)c1cnn([C@H]2CC[C@H](C(=O)O)CC2)c1C(F)(F)F)c1c(Cl)cncc1Cl [Example 104, trans-4-(4-((2-(3,5-dichloropyridin-4-yl)-2-oxoethyl)-(pyridin-3-ylmethyl)carbamoyl)-5-(trifluorornethyl)pyrazol-1-yl)cyclohexane-1-carboxylic acid] |
| 53700 | O=C(CN(CC1(C(F)(F)F)CC1)C(=O)c1cnn([C@H]2CC[C@H](C(=O)O)CC2)c1C(F)(F)F)c1c(Cl)cncc1Cl [Example 150, trans-4-(4-((2-(3,5-dichloropyridin-4-yl)-2-oxoethyl)-((1-(trifluoromethyl)cyclopropyl)methyl)carbamoyl)-5-(trifluoromethyl)pyrazol-1-yl)cyclohexane-1-carboxylic acid] |
| > 1e+07 | O=C1CC[C@H](CN(CC(=O)c2c(Cl)cncc2Cl)C(=O)c2cnn([C@H]3CC[C@H](C(=O)O)CC3)c2C(F)(F)F)N1 [Example 158, trans-4-(4-((2-(3,5-dichloropyridin-4-yl)-2-oxoethyl)-(((2R)-5-oxopyrrolidin-2-yl)methyl)carbamoyl)-5-(trifluoromethyl)pyrazol-1-yl)cyclohexane-1-carboxylic acid] |
| 4.57e+06 | CC1(C)[C@@H]2C[C@H](N(C[C@@](C)(O)c3ccccc3Cl)C(=O)c3cnn([C@H]4CC[C@](C)(C(=O)O)CC4)c3C(F)(F)F)C[C@@H]21 [Example 393, trans-4-(4-((2-(2-chlorophenyl)-2-hydroxypropyl)((1R,3r,5S)-6,6-dimethylbicyclo[3.1.0]hexan-3-yl)carbamoyl)-5-(trifluoromethyl)-1H -pyrazol-1-yl)-1-methylcyclohexanecarboxylic acid] |
| 5500 | CC1(C)[C@@H]2C[C@H](N(CC(=O)c3c(Cl)cc(F)cc3Cl)C(=O)c3cnn(C45CCC(C(=O)O)(CC4)CC5)c3C(F)(F)F)C[C@@H]21 [Example 240, 4-(4-((2-(2,6-dichloro-4-fluorophenyl)-2-oxoethyl)-((1R,3r,5S)-6,6-dimethyl-3-bicyclo[3.1.0]hexanyl)carbamoyl)-5-(trifluoromethyl)pyrazol-1-yl)bicyclo(2.2.2)octane-1-carboxylic acid] |
| 282000 | NC(=O)c1cc(Cl)c(C(=O)CN(Cc2cc(F)cc(F)c2)C(=O)c2cnn([C@H]3CC[C@H](C(=O)O)CC3)c2C(F)(F)F)c(Cl)c1 [Example 97, trans-4-(4-((2-(4-carbamoyl-2,6-dichlorophenyl)-2-oxoethyl)-((3,5 difluorophenyl)methyl)carbamoyl)-5-(trifluoromethyl)pyrazol-1-yl)cyclohexane-1-carboxylic acid] |
| 257000 | Cc1c(C(=O)N(CC(=O)c2c(Cl)cncc2Cl)CC2CC(C)(C)C2)cnn1[C@H]1CC[C@](C)(C(=O)O)CC1 [Example 382, trans-4-(4-((2-(3,5-dichloropyridin-4-yl)-2-oxoethyl)-((3,3-dimethylcyclobutyl)methyl)carbamoyl)-5-methylpyrazol-1-yl)-1-methylcyclohexane-1-carboxylic acid] |
| 871000 | CC(C)c1c(C(=O)N(CC(=O)c2c(Cl)cc(F)cc2Cl)C2CCC(C)(C)CC2)cnn1[C@H]1CC[C@](C)(C(=O)O)CC1 [Example 347, trans-4-(4-((2-(2,6-dichloro-4-fluorophenyl)-2-oxoethyl)-(4,4-dimethylcyclohexyl)carbamoyl)-5-propan-2-ylpyrazol-1-yl)-1-methylcyclohexane-1-carboxylic acid] |
| 14800 | O=C(CN(CC1(C(F)(F)F)CC1)C(=O)c1cnn(C23CCC(C(=O)O)(CC2)CC3)c1C(F)(F)F)c1c(Cl)cncc1Cl [Example 329, 4-(4-((2-(3,5-dichloropyridin-4-yl)-2-oxoethyl)-((1-(trifluoromethyl)cyclopropyl)methyl)carbamoyl)-5-(trifluoromethyl)pyrazol-1-yl)bicyclo[2.2.2]octane-1-carboxylic acid] |
| 479000 | CC(C)(C)c1c(C(=O)N(CC(=O)c2c(Cl)cncc2Cl)Cc2cc(F)cc(F)c2)cnn1[C@H]1CC[C@H](C(=O)O)CC1 [Example 148, trans-4-(5-tert-butyl-4-((2-(3,5-dichloropyridin-4-yl)-2-oxoethyl)-((3,5-difluorophenyl)methyl)carbamoyl)pyrazol-1-yl)cyclohexane-1-carboxylic acid] |
| ≥ 1.05e+07 | CC(C)(C)CN(C[C@H](O)c1ncccc1Cl)C(=O)c1cnn([C@H]2CC[C@](C)(C(=O)O)CC2)c1C(F)(F)F (stereo in doubt) [Example 402, trans-4-(4-((2-(3-chloropyridin-2-yl)-2-hydroxyethyl)-(2,2-dimethylpropyl)carbamoyl)-5-(trifluoromethyl)pyrazol-1-yl)-1-methylcyclohexane-1-carboxylic acid] |
| > 1e+07 | O=C(CN(Cc1cnccn1)C(=O)c1cnn([C@H]2CC[C@H](C(=O)O)CC2)c1C(F)(F)F)c1c(Cl)cncc1Cl [Example 48, trans-4-(4-((2-(3,5-dichloropyridin-4-yl)-2-oxoethyl)(pyrazin-2-ylmethyl)carbarnoyl)-5-(trifluoromethyl)-1H-pyrazol-1-yl)cyclohexanecarboxylic acid] |
